pEC50: −log10 of the molar value. Active and inactive are the calls of the source. No cut-off for these calls is given here.
Assays:
Hexokinase-4 = target: T1, Hexokinase-4 (Homo sapiens, UniProt P35557); assay: Activation of recombinant human liver glucokinase 2 assessed as […] in presence of 5 mM glucose by G6PDH coupled assay
T1 sequence (P35557 whole entry): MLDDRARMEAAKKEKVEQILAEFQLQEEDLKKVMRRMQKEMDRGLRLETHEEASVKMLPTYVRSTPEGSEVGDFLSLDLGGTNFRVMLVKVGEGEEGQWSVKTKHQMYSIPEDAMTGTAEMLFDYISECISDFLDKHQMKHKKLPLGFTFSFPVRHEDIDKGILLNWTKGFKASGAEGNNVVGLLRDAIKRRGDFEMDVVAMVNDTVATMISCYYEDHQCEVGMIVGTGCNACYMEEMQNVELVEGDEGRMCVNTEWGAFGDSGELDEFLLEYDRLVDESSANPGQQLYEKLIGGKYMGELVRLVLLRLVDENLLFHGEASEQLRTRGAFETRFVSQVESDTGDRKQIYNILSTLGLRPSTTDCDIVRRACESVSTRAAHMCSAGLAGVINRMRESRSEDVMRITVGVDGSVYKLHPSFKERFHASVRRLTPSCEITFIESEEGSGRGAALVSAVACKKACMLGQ

Hepatocyte = assay: Increase in glucose uptake in mouse primary hepatocytes assessed as glucose uptake level at 20 uM after 24 hrs by glucose oxidase method relative to control; type: functional
[1] = target: T2, Hexokinase-4 (Rattus norvegicus) (UniProt P17712); assay: Activation of glucokinase in rat INS1(832/13) cells assessed as increase in glucose sensitive insulin secretion at 20 uM after 2 hrs in presence of 5.5 mM glucose by AlphaLISA method relative to control; type: cell-based
T2 sequence (whole entry): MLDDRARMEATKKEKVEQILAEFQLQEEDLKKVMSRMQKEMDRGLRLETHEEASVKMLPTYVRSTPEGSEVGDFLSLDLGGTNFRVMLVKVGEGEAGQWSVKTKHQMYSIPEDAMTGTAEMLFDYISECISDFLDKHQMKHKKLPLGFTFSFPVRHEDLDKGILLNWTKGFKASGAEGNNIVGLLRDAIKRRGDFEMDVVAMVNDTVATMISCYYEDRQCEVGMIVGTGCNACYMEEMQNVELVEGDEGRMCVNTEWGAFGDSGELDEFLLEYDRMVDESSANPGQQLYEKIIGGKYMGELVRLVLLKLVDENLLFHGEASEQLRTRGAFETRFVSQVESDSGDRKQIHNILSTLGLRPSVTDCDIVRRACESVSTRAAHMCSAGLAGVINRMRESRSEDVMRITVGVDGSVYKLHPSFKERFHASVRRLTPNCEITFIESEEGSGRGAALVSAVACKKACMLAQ

Row | SMILES | pEC50 (Hexokinase-4) | fold change (FC) [1] | Activity (Hepatocyte)
1 | COC[C@H](C)Oc1cc(Oc2ccc(C(=O)N3CCC3)cc2)cc(C(=O)Nc2nc3c(s2)CN(CCO)CC3)c1 | 5.34 | – | –
2 | COC[C@@H](C)Oc1cc(Oc2ccc(C(=O)N3CCC3)cc2)cc(C(=O)Nc2nc3c(s2)CN(C(=O)OC(C)(C)C)CC3)c1 | 5.59 | – | –
3 | COCC(C)Oc1cc(Oc2ccc(S(C)(=O)=O)cc2)cc(C(=O)Nc2nc3c(s2)CN(c2ccccc2)CC3)c1 (stereo unspecified) | < 5.00 | – | –
4 | COCC(C)Oc1cc(Oc2ccccc2S(C)(=O)=O)cc(C(=O)Nc2nc3c(s2)CN(C(=O)OC(C)(C)C)CC3)c1 (stereo unspecified) | < 5.00 | – | –
5 | CC(C)(C)OC(=O)N1CCc2nc(NC(=O)c3cc(OCc4ccccc4)cc(Oc4ccc(S(C)(=O)=O)cc4)c3)sc2C1 | 5.15 | inactive | 21%
6 | COCCOc1cc(Oc2ccc(S(C)(=O)=O)cc2)cc(C(=O)Nc2nc3c(s2)CN(C(=O)OC(C)(C)C)CC3)c1 | 5.65 | – | –
7 | COCC(C)Oc1cc(Oc2ccc(S(C)(=O)=O)cc2)cc(C(=O)Nc2nc3c(s2)CN(Cc2ccccc2)CC3)c1 (stereo unspecified) | < 5.00 | – | –
8 | COC[C@H](C)Oc1cc(Oc2ccc(C(=O)N3CCC3)cc2)cc(C(=O)Nc2nc3c(s2)N(C(=O)OC(C)(C)C)CCC3)c1 | 5.22 | – | –
9 | COCC(C)Oc1cc(Oc2ccc(S(C)(=O)=O)cc2)cc(C(=O)Nc2nc3c(s2)CN(C)CC3)c1 (stereo unspecified) | 5.07 | – | –
10 | CCN1CCc2nc(NC(=O)c3cc(Oc4ccc(S(C)(=O)=O)cc4)cc(OC(C)COC)c3)sc2C1 (stereo unspecified) | 5.27 | – | –
11 | CC(C)(C)OC(=O)N1CCc2nc(NC(=O)c3cc(OCC4CCCC4)cc(Oc4ccc(S(C)(=O)=O)cc4)c3)sc2C1 | < 5.00 | – | –
12 | COCC(C)Oc1cc(Oc2ccc(S(C)(=O)=O)cc2)cc(C(=O)Nc2nc3c(s2)C(=O)CCC3)c1 (stereo unspecified) | < 5.00 | – | –
13 | COC[C@H](C)Oc1cc(Oc2ccc(C(=O)N3CCC3)cc2)cc(C(=O)Nc2nc3c(s2)CNCC3)c1 | 5.95 | – | –
14 | COCC(C)Oc1cc(Oc2ccc(S(C)(=O)=O)cc2)cc(C(=O)Nc2nc3c(s2)COCC3)c1 (stereo unspecified) | < 5.00 | – | –
15 | COCC(C)Oc1cc(Oc2ccc(S(C)(=O)=O)cc2)cc(C(=O)Nc2nc3c(s2)CN(C(C)=O)CC3)c1 (stereo unspecified) | 5.65 | – | –
16 | C[C@@H](CO)Oc1cc(Oc2ccc(C(=O)N3CCC3)cc2)cc(C(=O)Nc2nc3c(s2)CN(C(=O)OC(C)(C)C)CC3)c1 | 5.89 | – | –
17 | COCC(C)Oc1cc(Oc2ccc(S(C)(=O)=O)cc2)cc(C(=O)Nc2nc3c(s2)CN(C(C)C)CC3)c1 (stereo unspecified) | 5.15 | – | –
18 | COCC(C)Oc1cc(Oc2ccc(S(C)(=O)=O)cc2)cc(C(=O)Nc2nc3c(s2)CN(c2cccnc2)CC3)c1 (stereo unspecified) | 5.96 | – | –

These reach a higher pEC50 (Hexokinase-4). Values come first.

Row | pEC50 (Hexokinase-4) | fold change (FC) [1] | SMILES | Activity (Hepatocyte)
19 | 6.09 | 1.14 | COCC(C)Oc1cc(Oc2cccc(S(C)(=O)=O)c2)cc(C(=O)Nc2nc3c(s2)CN(C(=O)OC(C)(C)C)CC3)c1 (stereo unspecified) | 25%
20 | 6.34 | 2.24 | COC[C@H](C)Oc1cc(Oc2ccc(C(=O)N3CCC3)cc2)cc(C(=O)Nc2nc3c(s2)CCN(C(=O)OC(C)(C)C)C3)c1 | 13%
21 | 6.70 | 1.42 | COCC(C)Oc1cc(Oc2ccc(S(C)(=O)=O)nc2)cc(C(=O)Nc2nc3c(s2)CN(C(=O)OC(C)(C)C)CC3)c1 (stereo unspecified) | 35%
22 | 6.26 | inactive | CC(C)(C)OC(=O)N1CCc2nc(NC(=O)c3cc(Oc4ccc(S(C)(=O)=O)cc4)cc(OC4CCCCC4)c3)sc2C1 | 29%
23 | 6.77 | 6.51 | COC[C@H](C)Oc1cc(Oc2ccc(C(=O)N3CCC3)cc2)cc(C(=O)Nc2nc3c(s2)CN(c2ncccn2)CC3)c1 | 14%
24 | 6.31 | 4.62 | COC[C@H](C)Oc1cc(Oc2ccc(C(=O)N3CCC3)cc2)cc(C(=O)Nc2nc3c(s2)CN(c2ccncn2)CC3)c1 | 16%
25 | 6.77 | inactive | CC(C)Oc1cc(Oc2ccc(S(C)(=O)=O)cc2)cc(C(=O)Nc2nc3c(s2)CN(C(=O)OC(C)(C)C)CC3)c1 | 34%
26 | 6.64 | – | COCC(C)Oc1cc(Oc2ccc(S(=O)(=O)C3CC3)cc2)cc(C(=O)Nc2nc3c(s2)CN(C(=O)OC(C)(C)C)CC3)c1 (stereo unspecified) | –
27 | 7.05 | 1.24 | COCC(C)Oc1cc(Oc2ccc(C(=O)N(C)C)cc2)cc(C(=O)Nc2nc3c(s2)CN(C(=O)OC(C)(C)C)CC3)c1 (stereo unspecified) | inactive
28 | 7.00 | inactive | COCC(C)Oc1cc(Oc2ccc(S(C)(=O)=O)cc2)cc(C(=O)Nc2nc3c(s2)CCC3)c1 (stereo unspecified) | 31%
29 | 6.05 | 1.37 | COCC(C)Oc1cc(Oc2ccc(S(=O)(=O)N3CCC3)cc2)cc(C(=O)Nc2nc3c(s2)CN(C(=O)OC(C)(C)C)CC3)c1 (stereo unspecified) | inactive
30 | 6.30 | 3.52 | COC[C@H](C)Oc1cc(Oc2ccc(C(=O)N3CCC3)cc2)cc(C(=O)Nc2nc3c(s2)CN(C(=O)N(C)C)CC3)c1 | 21%
31 | 6.16 | 5.68 | COC[C@H](C)Oc1cc(Oc2ccc(C(=O)N3CCC3)cc2)cc(C(=O)Nc2nc3c(s2)CN(C(=O)OC)CC3)c1 | 16%
32 | 6.70 | 1.3 | COC[C@H](C)Oc1cc(Oc2cc(F)cc(F)c2)cc(C(=O)Nc2nc3c(s2)CN(C(=O)OC(C)(C)C)CC3)c1 | 15%
33 | 6.05 | – | COCC(C)Oc1cc(Oc2ccc(S(C)(=O)=O)cc2)cc(C(=O)Nc2nc3c(s2)CN(c2ccccn2)CC3)c1 (stereo unspecified) | –
34 | 6.85 | inactive | CCS(=O)(=O)c1ccc(Oc2cc(OC(C)COC)cc(C(=O)Nc3nc4c(s3)CN(C(=O)OC(C)(C)C)CC4)c2)cc1 (stereo unspecified) | 34%
35 | 6.48 | 1.1 | COC[C@H](C)Oc1cc(Oc2ccc(C(=O)N3CCC3)c(F)c2)cc(C(=O)Nc2nc3c(s2)CN(C(=O)OC(C)(C)C)CC3)c1 | 19%
36 | 6.64 | 5.45 | CCOC(=O)N1CCc2nc(NC(=O)c3cc(Oc4ccc(C(=O)N5CCC5)cc4)cc(O[C@@H](C)COC)c3)sc2C1 | 17%
37 | 6.74 | inactive | CC(C)(C)OC(=O)N1CCc2nc(NC(=O)c3cc(Oc4ccc(S(C)(=O)=O)cc4)cc(OC4CCCC4)c3)sc2C1 | 26%
38 | 6.49 | 1.72 | COCC(C)Oc1cc(Oc2ccc(S(C)(=O)=O)cc2)cc(C(=O)Nc2nc3c(s2)CN(C(=O)OC(C)(C)C)CC3)c1 (stereo unspecified) | 36%
39 | 6.54 | 2.47 | COC[C@H](C)Oc1cc(Oc2ccc(C(=O)N3CCC3)cc2)cc(C(=O)Nc2nc3c(s2)CN(c2ccccn2)CC3)c1 | 15%
40 | 6.52 | 5.51 | COC[C@H](C)Oc1cc(Oc2ccc(C(=O)N3CCC3)cc2)cc(C(=O)Nc2nc3c(s2)CN(c2cc[nH]c(=O)c2)CC3)c1 | inactive
41 | 6.68 | 6.07 | COCCN1CCc2nc(NC(=O)c3cc(Oc4ccc(C(=O)N5CCC5)cc4)cc(O[C@@H](C)COC)c3)sc2C1 | 13%
42 | 6.06 | 5.4 | COCC(C)Oc1cc(Oc2ccc(C(=O)N3CCC3)nc2)cc(C(=O)Nc2nc3c(s2)CN(C(=O)OC(C)(C)C)CC3)c1 (stereo unspecified) | inactive
43 | 6.68 | 1.3 | COCC(C)Oc1cc(Oc2ccc(S(C)(=O)=O)cc2)cc(C(=O)Nc2nc3c(s2)CN(c2ccncc2)CC3)c1 (stereo unspecified) | inactive

From ChEMBL document CHEMBL4190311, “Discovery of cycloalkyl-fused N-thiazol-2-yl-benzamides as tissue non-specific glucokinase activators: Design, synthesis, and biological evaluation” (Eur J Med Chem, 2017)
